In patent publication US12472272B2, “Radiolabelled compounds for diagnosis or treatment of prostate-specific membrane antigen- expressing cancer” (PROVINCIAL HEALTH SERVICES AUTHORITY, priority 2019, dated 2025):

Assays:
LNCaP tumors = assay: PET/CT imaging of ^68Ga-labeled tracers; format: in vivo, mice; conditions: FIG. 3
Method: (§1) Imaging and biodistribution experiments were performed using NODSCID 1L2RγKO male mice. Mice were anesthetized by inhalation with 2% isoflurane in oxygen, and implanted subcutaneously with 1×10^7 LNCaP cells behind left shoulder. Mice were imaged or used in biodistribution studies when the tumor grew up to reach 5-8 mm in diameter during 5-6 weeks.
(§2) PET imaging experiments were conducted using Siemens Inveon micro PET/CT scanner. Each tumor bearing mouse was injected 6-8 MBq of Ga-68 labeled tracer through the tail vein under anesthesia (2% isoflurane in oxygen). The mice were allowed to recover and roam freely in their cage. After 50 min, the mice were sedated again with 2% isoflurane in oxygen inhalation and positioned in the scanner. A 10-min CT scan was conducted first for localization and attenuation correction after segmentation for reconstructing the PET images. Then, a 10-min static PET imaging was performed to determined uptake in tumor and other organs. The mice were kept warm by a heating pad during acquisition. For imaging studies acquired at 3 h post-injection (p.i.), the mice were placed in the micro PET/CT scanner at 170 min p.i. Then, the CT acquisitions were conducted as described above, a 15-min static PET imaging was performed to determined uptake in tumor and other organs.

[1] = tested on: PSMA-expressing LNCAP cancer xenografts; assay: Biodistribution of ^68Ga-labeled PSMA-targeting tracers; format: in vivo, mice; conditions: 1 h post-injection
Method: as §1, §2
For biodistribution studies, the mice were injected with the radiotracer as described above. At predetermined time points (1 or 3 h for ^68Ga studies; 1, 4, 24, 72, or 120 h for ^177Lu studies), the mice was anesthetized with 2% isoflurane inhalation, and euthanized by CO2 inhalation. Blood was withdrawn immediately from the heart, and the organs/tissues of interest were collected. The collected organs/tissues were weighed and counted using a Perkin Elmer (Waltham, MA) Wizard2 2480 gamma counter. The uptake in each organ/tissue was normalized to the injected dose using a standard curve, and expressed as the percentage of the injected dose per gram of tissue (% ID/g).

Tissue (% ID/g): Adrenal glands [1] [% ID/g]	Tissue (% ID/g): Blood [1] [% ID/g]	Tissue (% ID/g): Bone [1] [% ID/g]	Tissue (% ID/g): Brain [1] [% ID/g]	Tissue (% ID/g): Fat [1] [% ID/g]	Tissue (% ID/g): Heart [1] [% ID/g]	Tissue (% ID/g): Intestine [1] [% ID/g]	Tissue (% ID/g): Kidneys [1] [% ID/g]	Tissue (% ID/g): Lacrimal [1] [% ID/g]	Tissue (% ID/g): Liver [1] [% ID/g]	Tissue (% ID/g): Lungs [1] [% ID/g]	Tissue (% ID/g): Muscle [1] [% ID/g]	Tissue (% ID/g): Pancreas [1] [% ID/g]	Tissue (% ID/g): Salivary [1] [% ID/g]	Tissue (% ID/g): Seminal [1] [% ID/g]	Tissue (% ID/g): Spleen [1] [% ID/g]	Tissue (% ID/g): Stomach [1] [% ID/g]	Tissue (% ID/g): Tail [1] [% ID/g]	Tissue (% ID/g): Testes [1] [% ID/g]	Compound	uptake in PET/CT images (LNCaP tumors)	other results
1.84 ± 0.95	0.70 ± 0.19	0.54 ± 0.20	0.06 ± 0.02	0.45 ± 0.11	0.30 ± 0.06	0.29 ± 0.06	68.5 ± 28.2	1.33 ± 0.90	0.24 ± 0.06	0.82 ± 0.26	0.28 ± 0.13	0.71 ± 1.04	0.83 ± 0.22	0.43 ± 0.31	1.34 ± 0.54	0.10 ± 0.03	0.90 ± 0.56	0.35 ± 0.22	CCCCCC[C@H](NC(=O)[C@H]1CC[C@H](CNC(=O)CN2CCN(CC(=O)[O-])CCN(CC(=O)[O-])CCN(CC(=O)[O-])CC2)CC1)C(=O)NCCCC[C@H](NC(=O)N[C@@H](CCC(=O)O)C(=O)O)C(=O)O.[68Ga+3] [^68Ga-HTK03026]	higher uptake was observed in LNCap tumor xenografts, kidneys and urinary bladders	Tissue (% ID/g): Thyroid [1]: 0.35 ± 0.08 % ID/g; Tissue (% ID/g): Tumor [1]: 12.5 ± 2.90 % ID/g; Tissue (% ID/g): Urine [1]: 575 ± 245 % ID/g; tumor-to-background contrast ratio Tumor: Blood [1]: 18.6 ± 5.54; tumor-to-background contrast ratio Tumor: Muscle [1]: 52.8 ± 24.9; tumor-to-background contrast ratio Tumor: kidney [1]: 0.22 ± 0.15; Tissue (% ID/g): Tumor ([1]; listed as 68Ga-labeled HTK03026): ~13 % ID/g
3.55 ± 2.33	1.56 ± 0.57	0.70 ± 0.33	0.06 ± 0.03	1.03 ± 0.67	0.56 ± 0.24	0.44 ± 0.12	85.6 ± 73.5	1.00 ± 0.56	0.46 ± 0.10	1.66 ± 0.67	0.48 ± 0.37	0.57 ± 0.20	1.86 ± 0.91	10.6 ± 10.9	3.36 ± 2.54	0.17 ± 0.10	0.98 ± 0.38	0.56 ± 0.18	O=C([O-])CN1CCN(CC(=O)[O-])CCN(CC(=O)NC[C@H]2CC[C@H](C(=O)N[C@@H](Cc3ccc4cc5ccccc5cc4c3)C(=O)NCCCC[C@H](NC(=O)N[C@@H](CCC(=O)O)C(=O)O)C(=O)O)CC2)CCN(CC(=O)[O-])CC1.[68Ga+3] [^68Ga-HTK03027]	higher uptake was observed in LNCap tumor xenografts, kidneys and urinary bladders	Tissue (% ID/g): Thyroid [1]: 0.76 ± 0.33 % ID/g; Tissue (% ID/g): Tumor [1]: 13.3 ± 5.44 % ID/g; Tissue (% ID/g): Urine [1]: 844 ± 645 % ID/g; tumor-to-background contrast ratio Tumor: Blood [1]: 8.57 ± 2.83; tumor-to-background contrast ratio Tumor: Muscle [1]: 35.0 ± 18.7; tumor-to-background contrast ratio Tumor: kidney [1]: 0.27 ± 0.20; Tissue (% ID/g): Tumor ([1]; listed as 68Ga-labeled HTK03027): ~13 % ID/g
4.91 ± 1.57	3.93 ± 0.91	0.92 ± 0.14	0.09 ± 0.02	1.57 ± 0.42	1.25 ± 0.27	0.77 ± 0.11	198 ± 49.3	1.06 ± 0.49	1.32 ± 0.63	3.59 ± 0.69	0.63 ± 0.10	0.94 ± 0.18	3.27 ± 1.02	6.74 ± 10.7	7.08 ± 5.08	0.31 ± 0.08	2.18 ± 0.65	1.02 ± 0.13	O=C([O-])CN1CCN(CC(=O)[O-])CCN(CC(=O)NC[C@H]2CC[C@H](C(=O)N[C@@H](Cc3ccc4ccc5cccc6ccc3c4c56)C(=O)NCCCC[C@H](NC(=O)N[C@@H](CCC(=O)O)C(=O)O)C(=O)O)CC2)CCN(CC(=O)[O-])CC1.[68Ga+3] [^68Ga-HTK03029]	higher uptake was observed in LNCap tumor xenografts, kidneys and urinary bladders	Tissue (% ID/g): Thyroid [1]: 1.57 ± 0.32 % ID/g; Tissue (% ID/g): Tumor [1]: 13.9 ± 6.58 % ID/g; Tissue (% ID/g): Urine [1]: 175 ± 178 % ID/g; tumor-to-background contrast ratio Tumor: Blood [1]: 3.39 ± 1.01; tumor-to-background contrast ratio Tumor: Muscle [1]: 21.3 ± 7.50; tumor-to-background contrast ratio Tumor: kidney [1]: 0.07 ± 0.02; Tissue (% ID/g): Tumor ([1]; listed as 68Ga-labeled HTK03029): ~13 % ID/g
